Experimental data reported in ChEMBL document CHEMBL2331112, “Synthesis of novel 2-alkyl triazole-3-alkyl substituted quinoline derivatives and their cytotoxic activity” (Bioorg Med Chem Lett, 2013).
In brackets after ≈: the same amount, converted by molar mass.

Experiments:
Assay type in all cases: functional, cell-based
HeLa = experiment: Cytotoxicity against human HeLa cells after 24 hrs by MTT assay
U-937 = experiment: Cytotoxicity against human U937 cells after 24 hrs by MTT assay; details: U-937, 24 h
COLO 205 = experiment: Cytotoxicity against human COLO205 cells after 24 hrs by MTT assay; details: COLO 205, 24 h
THP-1 = experiment: Cytotoxicity against human THP1 cells after 24 hrs by MTT assay; details: THP-1, 24 h

CCCCc1cc2ccccc2nc1-c1cn(CCC(F)(F)C(F)(F)C(F)(F)C(F)(F)C(F)(F)C(F)(F)C(F)(F)C(F)(F)F)nn1
IC50 (HeLa): 32.8 µg/mL (≈ 47 µM)
IC50 (U-937): 59.1 µg/mL (≈ 84.6 µM)
IC50 (COLO 205): > 100 µg/mL
IC50 (THP-1): > 100 µg/mL

CCCc1cc2ccccc2nc1-c1cn(CCC(F)(F)C(F)(F)C(F)(F)C(F)(F)C(F)(F)C(F)(F)C(F)(F)C(F)(F)F)nn1
IC50 (HeLa): 37.8 µg/mL (≈ 55.2 µM)
IC50 (U-937): > 100 µg/mL
IC50 (COLO 205): > 100 µg/mL
IC50 (THP-1): > 100 µg/mL

CCCCCCCCCCn1cc(-c2nc3ccccc3cc2CCC)nn1
IC50 (HeLa): > 100 µg/mL
IC50 (U-937): 26.6 µg/mL (≈ 70.2 µM)
IC50 (COLO 205): > 100 µg/mL
IC50 (THP-1): > 100 µg/mL

CCc1cc2ccccc2nc1-c1cn(CCC(F)(F)C(F)(F)C(F)(F)C(F)(F)C(F)(F)C(F)(F)C(F)(F)C(F)(F)F)nn1
IC50 (HeLa): > 100 µg/mL
IC50 (U-937): 55.9 µg/mL (≈ 83.4 µM)
IC50 (COLO 205): 95.2 µg/mL (≈ 142 µM)
IC50 (THP-1): > 100 µg/mL

Cc1cc2ccccc2nc1-c1cn(-c2ccc(F)cc2)nn1
IC50 (HeLa): > 100 µg/mL
IC50 (U-937): 65.6 µg/mL (≈ 215 µM)
IC50 (COLO 205): > 100 µg/mL
IC50 (THP-1): > 100 µg/mL

CCCCCCCCCCn1cc(-c2nc3ccccc3cc2CCCC)nn1
IC50 (HeLa): > 100 µg/mL
IC50 (U-937): 25.2 µg/mL (≈ 64.3 µM)
IC50 (COLO 205): > 100 µg/mL
IC50 (THP-1): > 100 µg/mL

Cc1cc2ccccc2nc1-c1cn(CCC(F)(F)C(F)(F)C(F)(F)C(F)(F)C(F)(F)C(F)(F)C(F)(F)C(F)(F)F)nn1
IC50 (HeLa): > 100 µg/mL
IC50 (U-937): 56.6 µg/mL (≈ 86.2 µM)
IC50 (COLO 205): 75.8 µg/mL (≈ 116 µM)
IC50 (THP-1): > 100 µg/mL

CCCCCc1cc2ccccc2nc1-c1cn(-c2ccc(F)cc2)nn1
IC50 (HeLa): > 100 µg/mL
IC50 (U-937): 67.5 µg/mL (≈ 187 µM)
IC50 (COLO 205): > 100 µg/mL
IC50 (THP-1): > 100 µg/mL

CCc1cc2ccccc2nc1-c1cn(-c2ccc(F)cc2)nn1
IC50 (HeLa): > 100 µg/mL
IC50 (U-937): > 100 µg/mL
IC50 (COLO 205): > 100 µg/mL
IC50 (THP-1): > 100 µg/mL

CCCCc1cc2ccccc2nc1-c1cn(-c2ccc(F)cc2)nn1
IC50 (HeLa): > 100 µg/mL
IC50 (U-937): 66.2 µg/mL (≈ 191 µM)
IC50 (COLO 205): > 100 µg/mL
IC50 (THP-1): 78.3 µg/mL (≈ 226 µM)

CCCCCCCCCCn1cc(-c2nc3ccccc3cc2C)nn1
IC50 (HeLa): 28.2 µg/mL (≈ 80.4 µM)
IC50 (U-937): > 100 µg/mL
IC50 (COLO 205): 44.5 µg/mL (≈ 127 µM)
IC50 (THP-1): > 100 µg/mL

CCCCCc1cc2ccccc2nc1-c1cn(CCC(F)(F)C(F)(F)C(F)(F)C(F)(F)C(F)(F)C(F)(F)C(F)(F)C(F)(F)F)nn1
IC50 (HeLa): > 100 µg/mL
IC50 (U-937): > 100 µg/mL
IC50 (COLO 205): > 100 µg/mL
IC50 (THP-1): > 100 µg/mL

CCCc1cc2ccccc2nc1-c1cn(-c2ccc(F)cc2)nn1
IC50 (HeLa): > 100 µg/mL
IC50 (U-937): 67.4 µg/mL (≈ 203 µM)
IC50 (COLO 205): > 100 µg/mL
IC50 (THP-1): > 100 µg/mL

CCCCCCCCCCn1cc(-c2nc3ccccc3cc2CC)nn1
IC50 (HeLa): > 100 µg/mL
IC50 (U-937): 12.7 µg/mL (≈ 34.9 µM)
IC50 (COLO 205): > 100 µg/mL
IC50 (THP-1): 34.3 µg/mL (≈ 94 µM)

O=c1[nH]cc(F)c(=O)[nH]1 [FLUOROURACIL]
IC50 (HeLa): 1.28 µg/mL (≈ 9.84 µM)
IC50 (U-937): 0.87 µg/mL (≈ 6.69 µM)
IC50 (COLO 205): 4.03 µg/mL (≈ 31 µM)
IC50 (THP-1): 0.54 µg/mL (≈ 4.15 µM)

CCCCCCCCCCn1cc(-c2nc3ccccc3cc2CCCCC)nn1
IC50 (HeLa): > 100 µg/mL
IC50 (U-937): 18.2 µg/mL (≈ 44.7 µM)
IC50 (COLO 205): > 100 µg/mL
IC50 (THP-1): 88 µg/mL (≈ 216 µM)
